Data reported in the supplement of paper PMC10307832.

Assays:
Test in all cases: relative viability (nuclei count vs DMSO), 5 days (fraction); higher = more cells survive
Trametinib + Decitabine = compound: CC(=O)Nc1cccc(-n2c(=O)n(C3CC3)c(=O)c3c(Nc4ccc(I)cc4F)n(C)c(=O)c(C)c32)c1 [Trametinib] + Nc1ncn([C@H]2C[C@H](O)[C@@H](CO)O2)c(=O)n1 [Decitabine] (partner 2 µM)
Summary of the method: (§1)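 Relative viability is defined as nuclei in treated wells over nuclei in vehicle wells. Duplicate plates were run and medians reported. Lung cancer cell lines in 1536-well plates were dosed by pin tool one day after seeding, with one drug or with a fixed anchor-drug dose plus five library-drug doses (not always all listed) in √10 steps, and nuclei were counted after 5 days.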

[1] = compound: CN1C=C(C2=CC=CC=C21)/C=C\3/C4=C(C=CC=N4)NC3=O + CC(=O)Nc1cccc(-n2c(=O)n(C3CC3)c(=O)c3c(Nc4ccc(I)cc4F)n(C)c(=O)c(C)c32)c1 [Trametinib] (partner 0.02 µM)
Summary of the method: as §1

[2] = compound: CN1C=C(C2=CC=CC=C21)/C=C\3/C4=C(C=CC=N4)NC3=O + CS(=O)(=O)CCNCc1ccc(-c2ccc3ncnc(Nc4ccc(OCc5cccc(F)c5)c(Cl)c4)c3c2)o1 [Lapatinib] (partner 2 µM)
Summary of the method: as §1

[3] = compound: CN1C=C(C2=CC=CC=C21)/C=C\3/C4=C(C=CC=N4)NC3=O + Cc1cc(Nc2cc(N3CCN(C)CC3)nc(Sc3ccc(NC(=O)C4CC4)cc3)n2)n[nH]1 [Tozasertib] (partner 0.1 µM)
Summary of the method: as §1

Cell Line	relative viability (Trametinib + Decitabine; first compound 0.0025 µM)	relative viability (Trametinib + Decitabine; first compound 0.007906 µM)	relative viability (Trametinib + Decitabine; first compound 0.025 µM)	relative viability (Trametinib + Decitabine; first compound 0.07906 µM)	relative viability (Trametinib + Decitabine; first compound 0.25 µM)	relative viability ([1]; first compound 0.02 µM)	relative viability ([1]; first compound 0.06325 µM)	relative viability ([1]; first compound 0.2 µM)	relative viability ([1]; first compound 0.6325 µM)	relative viability ([1]; first compound 2 µM)	relative viability ([2]; first compound 0.02 µM)	relative viability ([2]; first compound 0.06325 µM)	relative viability ([2]; first compound 0.2 µM)	relative viability ([2]; first compound 0.6325 µM)	relative viability ([2]; first compound 2 µM)	relative viability ([3]; first compound 0.02 µM)	relative viability ([3]; first compound 0.06325 µM)	relative viability ([3]; first compound 0.2 µM)	relative viability ([3]; first compound 0.6325 µM)	relative viability ([3]; first compound 2 µM)
NCI-H358	0.2	0.191	0.142	0.209	0.155	0.12	0.127	0.116	0.136	0.117	0.46	0.419	0.436	0.55	0.446	0.0895	0.11	0.109	0.0977	0.117
NCI-H1993	0.556	0.567	0.582	0.57	0.524	0.517	0.5	0.589	0.342	0.507	0.694	0.497	0.83	0.788	0.909	0.565	0.565	0.552	0.652	0.559
NCI-H727	0.818	0.619	0.541	0.431	0.453	0.461	0.344	0.361	0.373	0.401	0.757	0.688	0.428	0.914	0.767	0.554	0.447	0.59	0.636	0.633
LOU-NH91	0.804	0.776	0.734	0.71	0.544	0.749	0.751	0.746	0.678	0.74	0.578	0.577	0.59	0.601	0.668	0.567	0.661	0.621	0.688	0.657
NCI-H1975	0.332	0.336	0.345	0.261	0.278	0.32	0.237	0.323	0.326	0.271	0.839	0.929	0.775	0.903	0.77	0.688	0.753	0.641	0.42	0.245
PC-3 [JPC-3]	0.807	0.724	0.757		0.632	0.824	0.657	0.667	0.718	0.717	0.405	0.425	0.441	0.376	0.447	0.863	0.897	0.92	0.746	0.913
NCI-H2126	0.574	0.558	0.514	0.535	0.523	0.558	0.55	0.564	0.212	0.506	0.678	0.796	0.671	0.748	0.674	0.85	0.756	0.807	0.807	0.836
LU99A	0.796	0.813	0.59	0.665	0.511	0.554	0.504	0.494	0.588	0.597	0.986	0.805	0.9	0.964	0.85	0.252	0.264	0.278	0.257	0.256
NCI-H23	0.291	0.297	0.281	0.269	0.258	0.346	0.332	0.301	0.287	0.443	0.926	0.952		0.892	0.991	0.48	0.365	0.304	0.328	0.227
PC-14	0.229	0.184	0.286	0.145	0.125	0.713	0.69	0.692	0.747	0.78	0.262	0.289	0.256	0.275	0.315	0.564	0.525	0.585	0.553	0.541
HCC-44	0.894	0.924	1.05	0.943	0.848	1.08	1.12	0.968	1.04	0.884	0.912	0.963	0.928	0.834	0.9	0.918	0.887		1.13	0.944
A-427	0.522	0.585	0.541	0.525	0.418	0.796	0.721		0.708	0.813	0.972	1.04		0.998	1.07	0.203	0.207		0.201	0.166
NCI-H596	0.967	0.96	0.952	0.968	0.739	0.741	0.781	0.755	0.744	0.867	1.05	1.03	0.889	1.02	0.99	0.981	0.878	0.745	0.7	0.918
RERF-LC-KJ	0.683	0.68	0.609	0.695	0.475	0.887	0.835	0.771	0.804	0.822	0.984	0.813	0.821	0.7	0.752	0.428	0.407	0.621	0.558	0.512
NCI-H647	0.39	0.349	0.377	0.344	0.19	0.532	0.404	0.41	0.38	0.404	1.06	0.995	0.679	0.949	1.27	0.327	0.345	0.206	0.321	0.215
NCI-H1734	0.508	0.438		0.426	0.453	0.603	0.619		0.676	0.699	1.01	1.01		1.02	1.08	0.281	0.311		0.295	0.284
SK-LU-1	0.585	0.632	0.473	0.431	0.455	0.414	0.475	0.475	0.416	0.533	0.662	0.788	0.854	0.886	1.2	0.23	0.244	0.316	0.287	0.316
NCI-H1395	0.705	0.597	0.736	0.693	0.555	0.946	0.976	1.01	0.98	1.07	0.878	1.01		0.948	0.885	0.703	0.72	0.681	0.721	0.821
COR-L23	0.428	0.435	0.329	0.372	0.293	0.519	0.575	0.576	0.545	0.606	0.973	0.92	1.16	0.923	1.12	0.21	0.187	0.222	0.162	0.151
EMC-BAC-2	0.974	0.95	0.827		0.5	0.926	0.872	0.892	0.927	0.956	0.883	0.91	0.934	0.836	0.921	0.315	0.295	0.301	0.281	0.374
NCI-H1355	0.346	0.353	0.309	0.347	0.34	0.336	0.361	0.423	0.274	0.3	0.952	0.784	0.7	0.637	0.646	0.52	0.599	0.523	0.412	0.368
NCI-H1944	0.446	0.379	0.403	0.386	0.294	0.359	0.359		0.405	0.444	0.719	0.743		0.759	0.727	0.234	0.246		0.234	0.21
HOP-62	0.199	0.229	0.252	0.235	0.227	0.424	0.415		0.354	0.325	1.28	1.21	0.688	0.882	1.06	0.31	0.359	0.412	0.406	0.422
NCI-H2009	0.306	0.303	0.247	0.273	0.267	0.261	0.255	0.293	0.296	0.263	0.996	0.965	1.02	0.947	0.898	0.73	0.613	0.741	0.859	0.831
